Data on 26 compounds can be found in patent US20110046147A1, “17BETA-HYDROXYSTEROID DEHYDROGENASE TYPE 1 INHIBITORS FOR THE TREATMENT OF HORMONE-RELATED DISEASES” (UNIVERSITAT DES SAARLANDES, priority 2007, published 2011).

One data set addresses T1, 17β-HSD1 (Homo sapiens, UniProt P14061).
T1 construct: In both cases, human placenta served as the enzyme source; from tissue; host or cells: human placenta
T1 sequence (P14061 1-328): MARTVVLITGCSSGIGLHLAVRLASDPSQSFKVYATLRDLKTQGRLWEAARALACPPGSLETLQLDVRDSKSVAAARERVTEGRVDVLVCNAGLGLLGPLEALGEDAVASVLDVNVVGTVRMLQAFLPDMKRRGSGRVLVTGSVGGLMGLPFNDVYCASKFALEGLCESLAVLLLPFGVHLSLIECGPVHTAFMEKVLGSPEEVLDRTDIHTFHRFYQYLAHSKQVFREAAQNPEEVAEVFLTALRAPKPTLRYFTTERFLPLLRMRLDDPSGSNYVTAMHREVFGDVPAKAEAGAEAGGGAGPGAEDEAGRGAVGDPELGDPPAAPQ
Briefly: Inhibition of 17β-HSD1 (estrone to estradiol, radio-HPLC). Format: biochemical. The settings on record: for IC50: human placenta enzyme, 500 nM estrone, NADH 500 μM; for Selectivity IC50 (17β-HSD2)/IC50 (17β-HSD1): ratio of IC50 values. Here is the method:
In the 17β-HSD1 test, NADH is employed as a cosubstrate at a final concentration of 500 μM in order to avoid the product inhibition occurring with NADPH. The enzyme preparation is diluted with test buffer to such an extent that the control conversion is 10 to maximally 20% (about 1:650). As the substrate, estrone in a final concentration of 500 nM is used, of which 3 nM is tritiated. 2,4,6,7-[^3H]estrone is purchased from Perkin-Elmer, Boston. The inhibitor is added as a solution in DMSO (control: pure DMSO without inhibitor; the final concentration of DMSO in the assay is 1% in all cases).
(§1) After the reaction, the substrate and product are extracted by partitioning with ether, separated by chromatography (HPLC) and quantified by means of radiodetection.

The next data set concerns the target T2, 17β-HSD2 (Homo sapiens, UniProt P37059).
T2 construct: from tissue; host or cells: human placenta, microsome fraction
T2 sequence (P37059 1-387): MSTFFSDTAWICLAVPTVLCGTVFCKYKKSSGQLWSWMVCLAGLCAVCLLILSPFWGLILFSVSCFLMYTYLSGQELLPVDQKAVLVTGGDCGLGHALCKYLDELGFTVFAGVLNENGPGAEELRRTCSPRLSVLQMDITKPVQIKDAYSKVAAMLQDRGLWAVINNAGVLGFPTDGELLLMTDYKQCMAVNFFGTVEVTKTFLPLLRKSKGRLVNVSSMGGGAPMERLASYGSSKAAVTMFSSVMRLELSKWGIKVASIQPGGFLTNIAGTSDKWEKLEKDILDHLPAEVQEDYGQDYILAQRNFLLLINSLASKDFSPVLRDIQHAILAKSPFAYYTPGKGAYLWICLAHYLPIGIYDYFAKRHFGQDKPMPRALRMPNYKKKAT
The data set is described as follows: Inhibition of 17β-HSD2 (estradiol to estrone, radio-HPLC). Format: biochemical. The note with it: human placenta microsome fraction, 500 nM estradiol, NAD+ 1500 μM. As to the method: Determination of the inhibitory activity of the potential inhibitors: Inhibition of 17β-HSD1 and 17β-HSD2: In both cases, human placenta served as the enzyme source (Lin, S.-X. et al., J. Biol. Chem., 267: 16182-16187 (1992)).
In the 17β-HSD2 test, the natural cosubstrate NAD^+ is employed at a final concentration of 1500 μM. The microsome fraction is diluted in test buffer, so that a control conversion of 20 to 30% results (about 1:350). As the substrate, estradiol in a final concentration of 500 nM is used, of which 3 nM is tritiated. 2,4,6,7-[^3H]estradiol is also purchased from Perkin-Elmer, Boston. The inhibitor is added as a solution in DMSO (control: pure DMSO without inhibitor; the final concentration of DMSO in the assay is […]). After the addition of the substrate, incubation is performed at 37° C. for 20 minutes. The reaction is quenched by the addition of HgCl2 (final concentration of HgCl2: 0.166 mM).
as §1

Data set [1] can be described thus: In vivo pharmacokinetics (rat), peroral cassette dosing. Set-up: species or system Wistar rats. The settings on record: 10 mg/kg; for Cz (last analytically quantifiable concentration) / AUC(0-t) / AUC(0-inf): plasma; for AUC(0-t) / AUC(0-inf): male, Wistar, po; for AUC(0-inf): extrapolated to ∞. As to the method:
In vivo pharmacokinetics (rat): The compounds 29, 45, 47 and 59 and a reference compound were administered to adult male Wistar rats (n=4) perorally in a cassette dosing method (vehicle: Labrasol/water 1/1). The plasma profiles were established by means of LC-MS/MS.
• Cmax obs highest measured concentration • Cz last analytically quantifiable concentration • tmax obs time to reach the highest measured concentration • tz time to withdrawal of the last sample with analytically quantifiable concentration • t1/2z half life (determined from the slope of the declining portion of the concentration vs. time curve • AUC0-tz area below the concentration vs. time curve up to time tZ • AUC0-∞ area below the concentration vs. time curve, extrapolated to ∞

On to `Oc1cccc(-c2nnc(-c3cccc(O)c3)o2)c1` [Compound 35, 3,3′-(1,3,4-Oxadiazole-2,5-diyl)diphenol], for which the “inhibition of 17β-HSD1 at a concentration of 1 μM (in words)” value (“inhibition of 17β-HSD1” for short) at 17β-HSD1 is listed as “do not show any inhibition”.

What is called IC50 is the concentration at which inhibition is half-maximal. Higher therefore signals lower potency. Take `Oc1cccc(-c2nnc(-c3cccc(O)c3)s2)c1` [Compound 36, 3,3′-(1,3,4-Thiadiazole-2,5-diyl)diphenol]: the concentration for half-maximal inhibition (IC50) against 17β-HSD1 turned out to be 510 nM.

Take `Oc1ccc(-c2ccsc2-c2ccc(O)cc2)cc1` [Compound 27, 4,4′-Thiene-2,3-diyldiphenol]: the “inhibition of 17β-HSD1” value against 17β-HSD1 is listed as “do not show any inhibition”.

`Oc1ccc(-c2cnc(-c3ccc(O)cc3)s2)cc1` [Compound 21, 4,4′-(1,3-Thiazole-2,5-diyl)diphenol]: on 17β-HSD1, the “inhibition of 17β-HSD1” value is given as “do not show any inhibition”.

As for `Oc1cccc(-c2csc(-c3cccc(O)c3)c2)c1` [Compound 34, 3,3′-Thiene-2,4-diyldiphenol], on 17β-HSD1, the IC50 was 170 nM and the “Selectivity IC50 (17β-HSD2)/IC50 (17β-HSD1)” value (“Selectivity IC50” for short) was 3.3. The IC50 on 17β-HSD2 was 560 nM.

In the case of `Oc1cccc(-c2cnc(-c3cccc(O)c3)cn2)c1` [Compound 58, 3,3′-Pyrazine-2,5-diyldiphenol], at 17β-HSD1, half-maximal inhibition (IC50) was put at 1000 nM and the “Selectivity IC50” value is 5.5. Besides, at 17β-HSD2, the midpoint of inhibition, the IC50, lay at 5500 nM.

Turning to `Oc1cccc(-c2ccc(-c3cccc(O)c3)s2)c1` [Compound 31, 3,3′-Thiene-2,5-diyldiphenol], the IC50 is 110 nM on 17β-HSD1 and 750 nM on 17β-HSD2. The “Selectivity IC50” value at 17β-HSD1 was determined as 6.8.

As usually defined, the AUC(0-t) is exposure summed from dosing to a finite time, without extrapolation to infinity. A lower AUC(0-t) goes with less exposure. Broadly, the AUC(0-inf) is the area under the concentration-time curve extrapolated to infinity. For `Oc1cccc(-c2ccc(-c3ccc(O)c(F)c3)s2)c1` [Compound 47, 2-Fluoro-4-[5-(3-hydroxyphenyl)-2-thienyl]phenol], on 17β-HSD1, 10 nM corresponded to half-maximal inhibition (IC50) and the “Selectivity IC50” value is 94. The compound further returned an IC50 on 17β-HSD2 of 940 nM. Moreover, in data set [1], the “t1/2z (half life)” value was 2.7 h, the “tmax obs (time to reach the highest measured concentration)” value is 8.0 h, the “tz (time of last sample with quantifiable concentration)” value worked out at 24.0 h and the Cz (last analytically quantifiable concentration) was 25 ng/mL. In addition, in data set [1], the AUC(0-t) worked out at 19300 ng·h/mL and the AUC(0-inf) was 19400 ng·h/mL.

With `Oc1cccc(-c2ccc(-c3ccc(O)c(C(F)(F)F)c3)s2)c1` [Compound 49, 4-[5-(3-Hydroxyphenyl)-2-thienyl]-2-(trifluoromethyl)phenol], the midpoint of inhibition at 17β-HSD1, the IC50, lay at 40 nM.

For `Oc1cccc(-c2ccc(-c3cccc(O)c3)nc2)c1` [Compound 57, 3,3′-Pyridine-2,5-diyldiphenol], on 17β-HSD1, the half-maximal inhibitory concentration (IC50) worked out at 100 nM and the “Selectivity IC50” value came to 34. This compound also returned an IC50 against 17β-HSD2 of 3400 nM.

For the compound `Oc1ccc(-c2nsc(-c3cccc(O)c3)n2)cc1` [Compound 40, 3-[3-(4-Hydroxyphenyl)-1,2,4-thiadiazole-5-yl]phenol], at 17β-HSD1, inhibition was half-maximal at 360 nM (IC50) and the “Selectivity IC50” value was 6.1. This compound came in with an IC50 on 17β-HSD2 of 2200 nM.

As to `Oc1ccc(-c2nsc(-c3ccc(O)cc3)n2)cc1` [Compound 39, 4,4′-(1,2,4-Thiadiazole-3,5-diyl)diphenol], at 17β-HSD1, the “inhibition of 17β-HSD1” value was “do not show any inhibition”.

With `Cc1cc(-c2csc(-c3cccc(O)c3)c2)ccc1O` [Compound 55, 4-[5-(3-Hydroxyphenyl)-3-thienyl]-2-methylphenol], the values for the IC50 against 17β-HSD1 and on 17β-HSD2 were 100 nM and 870 nM, respectively. Also, the “Selectivity IC50” value on 17β-HSD1 worked out at 8.7.

On to `Cc1cc(-c2cnc(-c3cccc(O)c3)s2)ccc1O` [Compound 56, 4-[2-(3-Hydroxyphenyl)-1,3-thiazole-5-yl]-2-methylphenol], for which the IC50 at 17β-HSD1 was determined as 100 nM; against 17β-HSD2, 2020 nM. At 17β-HSD1, the “Selectivity IC50” value is listed as 20.

As to `Oc1cccc(-c2ccc(-c3ccc(O)c(O)c3)s2)c1` [Compound 46, 4-[5-(3-Hydroxyphenyl)-2-thienyl]benzene-1,2-diol], the concentration for half-maximal inhibition (IC50) at 17β-HSD1 was found to be 800 nM; at 17β-HSD2, 1640 nM. Besides, the “Selectivity IC50” value on 17β-HSD1 was determined as 2.1.

Regarding `COc1ccc(-c2nsc(-c3cccc(O)c3)n2)cc1` [Compound 38, 3-[3-(4-Methoxyphenyl)-1,2,4-thiadiazole-5-yl]phenol], the IC50 against 17β-HSD1 was determined as 820 nM.

`CS(=O)(=O)Nc1cccc(-c2ccc(-c3cccc(O)c3)s2)c1` [Compound 51, N-{3-[5-(3-Hydroxyphenyl)-2-thienyl]phenyl}methanesulfonamide]: the IC50 on 17β-HSD1 came out at 520 nM. This IC50 lies about 1.6-fold lower than the previous one.

`Oc1cccc(-c2ccc(-c3ccc(F)cc3)s2)c1` [Compound 54, 3-[5-(4-Fluorophenyl)-2-thienyl]phenol] had an IC50 on 17β-HSD1 of 720 nM.

In the case of `Oc1cccc(-c2ccc(-c3cccc(F)c3)s2)c1` [Compound 50, 3-[5-(3-Fluorophenyl)-2-thienyl]phenol], the IC50 on 17β-HSD1 came out at 530 nM.

In the case of `Cc1cc(-c2ccc(-c3cccc(O)c3)s2)ccc1O` [Compound 45, 4-[5-(3-Hydroxyphenyl)-2-thienyl]-2-methylphenol], on 17β-HSD1, the IC50 is 40 nM and the “Selectivity IC50” value is on record as 49. At 17β-HSD2, this compound registered an IC50 of 1970 nM. Further, in data set [1], the “t1/2z (half life)” value is 3.8 h, the “tmax obs (time to reach the highest measured concentration)” value is 4.0 h, the “tz (time of last sample with quantifiable concentration)” value stood at 24.0 h and the Cz (last analytically quantifiable concentration) was determined as 43.4 ng/mL. In addition, in data set [1], the AUC(0-t) worked out at 12000 ng·h/mL and the AUC(0-inf) is 12300 ng·h/mL.

Take `Oc1cccc(-c2ccc(-c3cc(F)c(O)c(F)c3)s2)c1` [Compound 48, 2,6-Difluoro-4-[5-(3-hydroxyphenyl)-2-thienyl]phenol]: on 17β-HSD1, the concentration for half-maximal inhibition (IC50) is 50 nM and the “Selectivity IC50” value stood at 4.6. This compound also returned an IC50 at 17β-HSD2 of 230 nM.

Regarding `Oc1ccc(-c2csc(-c3cccc(O)c3)c2)cc1` [Compound 33, 3-[4-(4-Hydroxyphenyl)-2-thienyl]phenol], the IC50 on 17β-HSD1 is 70 nM; on 17β-HSD2, 1270 nM. The “Selectivity IC50” value on 17β-HSD1 is 18.

`Oc1ccc(-c2ccc(-c3cccc(O)c3)cc2)cc1` [Compound 44, [1,1′;4′,1″]Terphenyl-4,3″-diol]: on 17β-HSD1, the IC50 stood at 240 nM and the “Selectivity IC50” value turned out to be 19. For the same compound, on 17β-HSD2, half-maximal inhibition (IC50) required 4500 nM.

For the compound `Oc1cccc(-c2ccc(-c3ccccc3)s2)c1` [Compound 52, 3-(5-Phenyl-2-thienyl)phenol], on 17β-HSD1, the IC50 was found to be 340 nM and the “Selectivity IC50” value is 6.9. Besides, half-maximal inhibition at 17β-HSD2 (IC50) required 2340 nM.

As to `Oc1ccc(-c2cccc(-c3cccc(O)c3)c2)cc1` [Compound 43, [1,1′;3′,1″]Terphenyl-4,3″-diol], on 17β-HSD1, the IC50 was found to be 1410 nM and the “Selectivity IC50” value stood at 2.2. In addition, the IC50 against 17β-HSD2 was found to be 3100 nM.

For the compound `Oc1ccc(-c2ccc(-c3ccc(O)cc3)s2)cc1` [Compound 30, 4,4′-Thiene-2,5-diyldiphenol], the “inhibition of 17β-HSD1” value at 17β-HSD1 is listed as “do not show any inhibition”.
